We go through two compounds from article PMC4189421, “Induction of Oligodendrocyte Differentiation and In Vitro Myelination by Inhibition of Rho-Associated Kinase” (ASN NEURO, 2014).

In one assay the target is T1, ROCKI (Homo sapiens, UniProt Q13464).
T1 construct: purchased EMD Millipore
The settings on record: read-out: Activity, IC50 ROCKI, Table 1, ref Goodman et al., 2007, Nichols et al., 2009, heading: Activity; cited from earlier work.

The target of another assay is T2, ROCKII (Homo sapiens, UniProt O75116).
T2 construct: purchased EMD Millipore
T2 sequence (O75116 whole entry, species assumed): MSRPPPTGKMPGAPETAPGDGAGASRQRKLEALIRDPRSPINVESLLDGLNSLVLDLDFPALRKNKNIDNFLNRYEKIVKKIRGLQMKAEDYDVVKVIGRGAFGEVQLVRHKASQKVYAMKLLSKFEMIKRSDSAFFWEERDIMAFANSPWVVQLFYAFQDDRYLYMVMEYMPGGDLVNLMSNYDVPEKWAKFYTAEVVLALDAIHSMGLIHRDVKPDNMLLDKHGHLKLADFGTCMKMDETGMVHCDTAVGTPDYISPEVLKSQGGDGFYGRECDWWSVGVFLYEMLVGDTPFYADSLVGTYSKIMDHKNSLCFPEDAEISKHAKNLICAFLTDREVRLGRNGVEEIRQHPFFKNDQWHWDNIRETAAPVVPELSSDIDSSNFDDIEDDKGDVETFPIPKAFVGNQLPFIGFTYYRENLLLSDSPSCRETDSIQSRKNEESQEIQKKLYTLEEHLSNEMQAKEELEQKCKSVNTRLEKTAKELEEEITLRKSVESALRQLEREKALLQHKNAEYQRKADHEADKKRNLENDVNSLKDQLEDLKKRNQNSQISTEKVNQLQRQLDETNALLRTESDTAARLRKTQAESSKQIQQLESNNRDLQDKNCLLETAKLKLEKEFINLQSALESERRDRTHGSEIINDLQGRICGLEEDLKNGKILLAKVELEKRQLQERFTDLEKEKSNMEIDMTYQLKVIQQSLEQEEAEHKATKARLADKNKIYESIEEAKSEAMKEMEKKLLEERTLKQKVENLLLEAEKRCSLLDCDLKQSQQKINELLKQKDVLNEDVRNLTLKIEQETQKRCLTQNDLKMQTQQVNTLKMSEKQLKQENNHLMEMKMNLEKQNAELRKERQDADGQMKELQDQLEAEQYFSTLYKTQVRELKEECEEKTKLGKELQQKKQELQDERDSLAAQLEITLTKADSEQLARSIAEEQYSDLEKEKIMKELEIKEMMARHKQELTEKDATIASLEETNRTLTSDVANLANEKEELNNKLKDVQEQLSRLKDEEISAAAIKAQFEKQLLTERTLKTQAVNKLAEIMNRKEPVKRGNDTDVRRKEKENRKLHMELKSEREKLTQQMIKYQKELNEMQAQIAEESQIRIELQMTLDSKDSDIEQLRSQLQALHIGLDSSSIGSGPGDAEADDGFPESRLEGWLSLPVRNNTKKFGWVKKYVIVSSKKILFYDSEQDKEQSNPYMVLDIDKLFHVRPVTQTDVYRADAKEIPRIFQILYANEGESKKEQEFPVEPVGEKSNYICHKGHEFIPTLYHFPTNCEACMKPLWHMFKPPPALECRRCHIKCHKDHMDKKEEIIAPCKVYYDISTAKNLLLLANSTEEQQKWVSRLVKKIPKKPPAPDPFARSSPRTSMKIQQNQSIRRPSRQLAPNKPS
The note with it: read-out: Activity, IC50 ROCKII, Table 1, ref Goodman et al., 2007, Nichols et al., 2009, heading: Activity; cited from earlier work.

In assay [1] the test system is mouse neurosphere-derived oligodendrocyte precursor cells (Nph-OPCs). Briefly: Morphology-based OPC differentiation assay (branches, outgrowth; high-content imaging). The assay is classed as cell-based. The note with it: mNph-OPC, 72 hr treatment, dose-response. Here is the method:
Neurospheres (Nph) were prepared from embryos at 14.5 days of gestation obtained from timed pregnant females of C57/Bl6 mice, as previously described ([Kornblum, Yanni, Easterday, & Seroogy, 2000]; [Pedraza, Monk, Lei, Hao, & Macklin, 2008]). In brief, after separation of meninges and cerebellum, cerebrum tissue was mechanically triturated with a 1-ml micropipette until total tissue dissociation was achieved, filtered through a 70 -µm cell strainer (Fisher Scientific, Pittsburgh, PA), and plated in 25-cm^2 plastic culture flasks (2 brains/flask). Nph proliferation media (NPM) consisted of Dulbecco’s Modified Eagle Medium (DMEM)/F12, B27 neuronal supplement (Gibco, Baltimore, MD) and 10 ng/ml […] (EGF; Sigma, St. Louis, MO). After 48 to 72 hr, floating Nphs were passaged at a 1 : 1 ratio into 75-cm^2 culture flasks. After a further 48 to 72 hr, they were passaged into 150-cm^2 flasks. Subsequent passages were performed every 3 to 4 days at a ratio of 1 : 2 or 1 : 3 in the same media, and Nph were used to generate OPCs for no more than 12 passages.
OPCs were generated by chemical disaggregation of Nph with a mouse neural progenitor dissociation kit following the manufacturer instructions (NeuroCult, StemCell Technologies, AB, Canada). The single-cell suspension was then filtered through a 40 -µm cell strainer and plated on poly-D-lysine (PDL)-coated plates. […]
To determine the effects of ROCK inhibition on OPCs, we developed a high-content image morphological analysis of OPC differentiation using mouse embryonic neural progenitor-derived OPCs (Nph-OPCs). […] Four images per well were analyzed using a neurite outgrowth module (Molecular Devices, Sunnyvale, CA). We quantified the number of branches and total outgrowth per cell (Figure 1). […] Additionally, nuclear staining by Hoechst allowed the accurate association of branches and processes to their corresponding cell bodies and permitted quantification of total cell numbers in each well.

For the next assay, the system named is rat mixed glial OPCs. Briefly: Myelin protein expression in rat mixed glia-derived OPCs (qPCR, MBP ELISA). The assay is classed as cell-based. Here is the method:
Rat postnatal OPCs were obtained as described elsewhere according to the original procedure of [McCarthy and […] (1980)]. In brief, postnatal Day 1 rat pups were sacrificed, and cerebral cortices dissected and mechanically dissociated in medium composed of DMEM, 10% heat inactivated fetal bovine serum, and 5 μg/ml penicillin/streptomycin. Dissociated cells were plated and maintained in 75-cm^2 culture flasks for 10 days, replenishing with fresh media at Days 3 and 7. At Day 10, the flasks were shaken on a heated (37°C) shaker for 1 hr at 110 rpm to separate loosely attached microglial cells. The medium was replenished, and the cells incubated for the remainder of the day. To dislodge OPCs from the astrocyte monolayer, flasks were shaken overnight (210 rpm, 37°C). […] Cells were then plated on PDL-coated tissue culture plastic and treated with test compounds. […] The results are presented as specific mRNA expression relative to either β-actin or β-tubulin, used as internal controls as indicated. OPCs isolated from rat mixed glial cultures are known to mature readily in the absence of mitogens achieving a premyelinating OL stage as determined by the expression of the cell surface sulfatide O4, and the myelin proteins MBP and PLP among others ([Armstrong, 1998]; [Barbarese & Pfeiffer, 1981]; [[…], 1999]; [Jung-[…], Schumacher, Robel, & Baulieu, 1996]; [Konola, Tyler, Yamamura, & Lees, 1991]). They also display marked morphological changes, progressing from bipolar to multibranched cells generating membranous structures, and probably represent a later developmental stage than Nph-OPC. In rat mixed glial OPCs, we measured myelin protein expression at the RNA level by qPCR and MBP production by ELISA (MBL International, Woburn, MA).
(In general: In qPCR the cycle at which signal appears reflects the starting amount.)

The subject of a further assay is mouse Nph-OPCs. Kind of assay: Cell proliferation as number of Hoechst-labeled nuclei. The assay is classed as cell-based. The settings on record: 1 µM; n = 3 in triplicate wells; DMSO: 522 ± 126. An excerpt:
To determine the effects of ROCK inhibition on OPCs, we developed a high-content image morphological analysis of OPC differentiation using mouse embryonic neural progenitor-derived OPCs (Nph-OPCs). Neural progenitors grow as nonadherent spheroids known as neurospheres (Nph; [Chojnacki & Weiss, 2008]; [Tropepe et al., 1999]), which are considered to be a mixed population of neural stem cells and progenitors of the CNS ([Rao, 1999]; [Zhou & Chiang, 1998]). These cells have been previously used in multiple published studies for the generation of high-yield, high-purity cultures of OPCs from rodents ([Calaora et al., 2001]; [[…] al., 1997]; [Pedraza et al., 2008]). After 24 hr of plating on PDL-coated tissue culture plastic, Nph-OPCs were treated as indicated with differentiation stimuli and further incubated for 72 hr. […] Four images per well were analyzed using a neurite outgrowth module (Molecular Devices, Sunnyvale, CA). We quantified the number of branches and total outgrowth per cell (Figure 1). […] Additionally, nuclear staining by Hoechst allowed the accurate association of branches and processes to their corresponding cell bodies and permitted quantification of total cell numbers in each well. […]

The test system of assay [2] is MYPT1 phosphorylation in mNph-OPC. Briefly: MYPT1 phosphorylation (sandwich ELISA, western blot) as ROCK target engagement. The note with it: 100 µM, 4-hr mNph-OPC treatment. In general terms: ELISA stands for enzyme-linked immunosorbent assay.
Protocol: Tris-glycine acrylamide-bysacrylamide gradient gel electrophoresis was performed as follows: After washing the cells with ice-cold PBS, protein lysates were made by adding 50 µl of PhosphoSafe extraction reagent (EMD Millipore) supplemented with antiprotease cocktail (cOmplete; Roche, Branford, CT) onto each 100-mm^2 cell culture plate. After detaching the cells with the help of a cell scraper and disrupting cell membranes by sonication, the protein extracts were centrifuged (10,000 g, 10 min, 4℃) and the supernatants separated. Protein content was measured by the BCA protein determination method (Biorad, Hercules, CA), and 30 µg of total protein was mixed with SDS sample buffer (Laemmli) supplemented with 1% β-mercaptoethanol. After heating the samples to 70℃ for 10 min, they were loaded onto 4% to 20% acryl-bysacrylamide gradient gels, and electrophoresis was carried out at 120 volts with constant amperage.
Resolved proteins were then transferred onto nitrocellulose membranes using the iBlot methodology and device (Life technologies). […] Secondary detection was performed using Li-Cor IRDye secondary anti-mouse and anti-rabbit antibodies, and near-infrared signal was detected by Li-Cor’s Odyssey imaging system.
We assessed MYPT1 phosphorylation in Nph-OPCs treated for 4 hr with ROCK inhibitors in a dose-response experiment and using a sandwich ELISA as a measuring method (MBL International).

T1 sequence (Q13464 whole entry, species assumed): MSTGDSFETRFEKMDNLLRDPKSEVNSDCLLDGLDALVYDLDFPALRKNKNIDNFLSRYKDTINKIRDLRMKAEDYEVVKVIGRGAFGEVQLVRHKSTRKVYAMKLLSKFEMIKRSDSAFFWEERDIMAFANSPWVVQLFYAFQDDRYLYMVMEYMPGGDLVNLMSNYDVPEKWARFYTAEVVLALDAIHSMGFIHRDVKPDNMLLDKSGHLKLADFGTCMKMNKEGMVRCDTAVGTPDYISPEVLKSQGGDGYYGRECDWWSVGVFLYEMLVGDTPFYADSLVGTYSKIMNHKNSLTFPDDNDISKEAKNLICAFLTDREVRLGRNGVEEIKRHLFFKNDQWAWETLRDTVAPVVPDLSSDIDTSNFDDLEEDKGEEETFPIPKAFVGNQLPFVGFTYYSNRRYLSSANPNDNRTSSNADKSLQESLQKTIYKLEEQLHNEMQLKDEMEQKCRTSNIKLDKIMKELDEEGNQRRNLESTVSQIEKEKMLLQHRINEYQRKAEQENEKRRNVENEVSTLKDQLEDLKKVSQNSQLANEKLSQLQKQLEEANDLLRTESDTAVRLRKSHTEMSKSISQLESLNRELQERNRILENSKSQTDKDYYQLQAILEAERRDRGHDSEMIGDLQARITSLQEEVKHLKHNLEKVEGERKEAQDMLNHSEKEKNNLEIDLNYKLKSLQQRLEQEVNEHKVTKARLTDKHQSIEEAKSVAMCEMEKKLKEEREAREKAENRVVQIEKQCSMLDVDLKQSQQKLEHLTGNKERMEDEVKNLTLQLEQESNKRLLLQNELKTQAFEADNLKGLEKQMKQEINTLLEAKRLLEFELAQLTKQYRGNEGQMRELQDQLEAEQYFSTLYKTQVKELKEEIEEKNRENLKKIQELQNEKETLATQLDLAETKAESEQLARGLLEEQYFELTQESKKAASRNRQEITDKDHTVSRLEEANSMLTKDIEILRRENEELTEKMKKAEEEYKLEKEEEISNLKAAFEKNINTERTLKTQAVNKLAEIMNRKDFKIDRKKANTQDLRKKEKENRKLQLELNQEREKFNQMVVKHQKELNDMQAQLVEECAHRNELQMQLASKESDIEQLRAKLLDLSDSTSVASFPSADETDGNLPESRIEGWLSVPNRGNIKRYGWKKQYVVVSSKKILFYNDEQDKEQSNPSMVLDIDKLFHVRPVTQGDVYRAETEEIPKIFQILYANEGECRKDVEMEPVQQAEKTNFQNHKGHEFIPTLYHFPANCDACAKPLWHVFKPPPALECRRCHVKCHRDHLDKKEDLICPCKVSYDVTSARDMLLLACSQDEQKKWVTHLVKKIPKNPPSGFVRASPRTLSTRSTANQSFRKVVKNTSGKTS

Take `CC1=C(C(=O)Nc2cc3cn[nH]c3cc2F)C(c2ccc(C(F)(F)F)cc2)CC(=O)N1` (centres unmarked) [GSK 429286, 4-[4-(trifluoromethyl)phenyl]-N-(6-fluoro-1H-indazol-5-yl)-2-methyl-6-oxo-1,4,5,6-tetrahydro-3-pyridinecarboxamide]: the IC50 at ROCKI was 14 nM; on ROCKII it was 48 nM; in assay [1] (Mus musculus, Oligodendrocyte precursor cell, read-out: IC50, generation of branches in OPC differentiation assay), 2300 nM.

Consider `O=S(=O)(c1cccc2cnccc12)N1CCCNCC1` [Fasudil], for which the “Expression of MBP, PLP, and MOG mRNAs (qPCR)” value in the assay with rat mixed glial OPCs (3 days maturation +4 days treatment, concentrations as low as 0.1 µM) is on record as “significant increase”. In addition, the “MBP at the protein level (ELISA)” value with rat mixed glial OPCs (treatments at 24 hr and 72 hr after plating) was “increased expression”. Besides, the “Number of Hoechst-labeled nuclei” value with mouse Nph-OPCs was 598 ± 21 cells/well. Also, in assay [2], the “Decrease of MYPT1 phosphorylation (ELISA)” value came out at 60%. The “OPC differentiation effect (processes and branches)” value in assay [1] is “minor differentiation effect”.
